Reference: patent publication US8268827B2, “Pyridazinone derivatives as PARP inhibitors” (Istituto di Ricerche di Biologia Molecolare P. Angeletti …, priority 2007, dated 2012)
Structures can show the parent of a compound that is named as a salt.

Test system: BRCA-1 silenced HeLa cells (HeLa shBRCA1-GFP)
Assay: Proliferation assay in BRCA-1 silenced HeLa cells
Format: cell-based
Settings: Homo sapiens; BRCA1 silenced HeLa cells, 168 hours; read-out: CC50 in the BRCA1 silenced HeLa cells
Description: Proliferation Assay in BRCA-1 Silenced HeLa Cells
Compounds of the present invention were also tested in an anti-proliferative assay in matched pair BRCA1 wt and BRCA1-(shRNA) HeLa cells.
The assay is based on the ability of living cells to convert a redox dye (resazurin) into a fluorescent end product (resofurin). The amount of resofurin produced is directly proportional to the cell number.
HeLa shBRCA1-GFP—These are HeLa cells transduced at an MOI of 100 with a Lentivirus containing a shRNA against BRCA-1 and an expression cassette for GFP. BRCA-1 silencing is more than 80% as assessed by Taqman analysis and the cells stably express GFP.
HeLa THM-GFP—These are HeLa cells transduced at an MOI of 100 with a control vector not expressing any shRNA.
• Seed 300 cell/well in 96 wells viewplate black in 90 ul culture Medium*: • Incubate 4 hours at 37° C., 5% CO2 • Add 10 ul/well of 10× compound (5% DMSO in H2O) • Incubate for 168 hours at 37° C., 5% CO2 • Add 10 ul of Celltiter Blue solution (Promega, G8081) pre-diluted 1:1 in PBS1× • Incubate the mixture for 45′ at 37° C., 5% CO2 • Incubate 15′ at RT in the dark • Read plate at fluorimeter ex: 550 nm; em: 590 nm *Culture Medium: DMEM (GIBCO, 41966-029), 10% FCS (GIBCO, 10106-169), 0.1 mg/ml Penicillin-Streptomycin (GIBCO, 15140-114), 2 mM L-Glutamine (GIBCO, 3042190)

## COc1ccc(CN2CCN(C(=O)c3cc(Cc4n[nH]c(=O)c(C)c4C)ccc3F)CC2=O)cc1 [Example 20, 6-(4-Fluoro-3-{[4-(4-methoxybenzyl)-3-oxopiperazin-1-yl]carbonyl}benzyl)-4,5-dimethylpyridazin-3(2H)-one trifluoroacetate]
  CC50: 50 to 500 nM

## Cc1c(Cc2ccc(F)c(C(=O)N3CCN(CCc4ccccc4)C(=O)C3)c2)n[nH]c(=O)c1C [Example 21, 6-(4-Fluoro-3-{[3-oxo-4-(2-phenylethyl)piperazin-1-yl]carbonyl}benzyl)-4,5-dimethylpyridazin-3(2H)-one trifluoroacetate]
  CC50: 50 to 500 nM

## COc1cccc(N2CCN(C(=O)c3cc(Cc4n[nH]c(=O)c(C)c4C)ccc3F)CC2=O)c1 [Example 22, 6-(4-Fluoro-3-{[4-(3-methoxyphenyl)-3-oxopiperazin-1-yl]carbonyl}benzyl)-4,5-dimethylpyridazin-3(2H)-one trifluoroacetate]
  CC50: 50 to 500 nM

## Cc1cc(C)cc(N2CCN(C(=O)c3cc(Cc4n[nH]c(=O)c(C)c4C)ccc3F)CC2=O)c1 [Example 23, 6-(3-{[4-(3,5-Dimethylphenyl)-3-oxopiperazin-1-yl]carbonyl}-4-fluorobenzyl)-4,5-dimethylpyridazin-3(2H)-one trifluoroacetate]
  CC50: 50 to 500 nM

## Cc1c(Cc2ccc(F)c(C(=O)N3CCN(C4CCCCC4)C(=O)C3)c2)n[nH]c(=O)c1C(F)(F)F [Example 25, 3-{3-[(4-Cyclohexyl-3-oxopiperazin-1-yl)carbonyl]-4-fluorobenzyl}-4-methyl-6-oxo-5-(trifluoromethyl)-1,6-dihydropyridazin-1-ium trifluoroacetate]
  CC50: < 50 nM

## Cc1c(Cc2ccc(F)c(C(=O)N3CCN(c4ccc(F)c(F)c4)C(=O)C3)c2)n[nH]c(=O)c1C(F)(F)F [Example 26, 3-(3-{[4-(3,4-Difluorophenyl)-3-oxopiperazin-1-yl]carbonyl}-4-fluorobenzyl)-4-methyl-6-oxo-5-(trifluoromethyl)-1,6-dihydropyridazin-1-ium trifluoroacetate]
  CC50: < 50 nM

## O=C(c1cc(Cc2cc(C(F)(F)F)c(=O)[nH]n2)ccc1F)N1CCN(C2CCCCC2)C(=O)C1 [Example 27, 6-{3-[(4-Cyclohexyl-3-oxopiperazin-1-yl)carbonyl]-4-fluorobenzyl}-3-oxo-4-(trifluoromethyl)-2,3-dihydropyridazin-1-ium trifluoroacetate]
  CC50: 50 to 500 nM

## CCc1c(Cc2ccc(F)c(C(=O)N3CCN(C4CCCCC4)C(=O)C3)c2)n[nH]c(=O)c1C [Example 28, 3-{3-[(4-Cyclohexyl-3-oxopiperazin-1-yl)carbonyl]-4-fluorobenzyl}-4-ethyl-5-methyl-6-oxo-1,6-dihydropyridazin-1-ium trifluoroacetate]
  CC50: 50 to 500 nM

## CCc1c(C)c(Cc2ccc(F)c(C(=O)N3CCN(C4CCCCC4)C(=O)C3)c2)n[nH]c1=O [Example 29, 3-{3-[(4-Cyclohexyl-3-oxopiperazin-1-yl)carbonyl]-4-fluorobenzyl}-5-ethyl-4-methyl-6-oxo-1,6-dihydropyridazin-1-ium trifluoroacetate]
  CC50: < 50 nM

## CCc1cc(Cc2ccc(F)c(C(=O)N3CCN(C4CCCC4)C(=O)C3)c2)n[nH]c1=O [Example 30, 3-{3-[(4-Cyclopentyl-3-oxopiperazin-1-yl)carbonyl]-4-fluorobenzyl}-5-ethyl-6-oxo-1,6-dihydropyridazin-1-ium trifluoroacetate]
  CC50: < 50 nM

## Cc1c(Cc2ccc(F)c(C(=O)N3CCN(c4cc(Cl)cc(Cl)c4)C(=O)C3)c2)n[nH]c(=O)c1C [Example 42, 3-(3-{[4-(3,5-Dichlorophenyl)-3-oxopiperazin-1-yl]carbonyl}-4-fluorobenzyl)-4,5-dimethyl-6-oxo-1,6-dihydropyridazin-1-ium trifluoroacetate]
  CC50: < 50 nM

## Cc1c(Cc2ccc(F)c(C(=O)N3CCN(c4cccc5ccccc45)C(=O)C3)c2)n[nH]c(=O)c1C [Example 43, 3-(4-Fluoro-3-{[4-(1-naphthyl)-3-oxopiperazin-1-yl]carbonyl}benzyl)-4,5-dimethyl-6-oxo-1,6-dihydropyridazin-1-ium trifluoroacetate]
  CC50: < 50 nM

## Cc1c(Cc2ccc(F)c(C(=O)N3CCN(c4cccs4)C(=O)C3)c2)n[nH]c(=O)c1C [Example 44, 3-(4-Fluoro-3-{[3-oxo-4-(2-thienyl)piperazin-1-yl]carbonyl}benzyl)-4,5-dimethyl-6-oxo-1,6-dihydropyridazin-1-ium trifluoroacetate]
  CC50: < 50 nM

## Cc1c(Cc2ccc(F)c(C(=O)N3CCN(CC(C)C(F)(F)F)C(=O)C3)c2)n[nH]c(=O)c1C (centres unmarked) [Example 45, 6-(4-Fluoro-3-{[3-oxo-4-(3,3,3-trifluoro-2-methylpropyl)piperazin-1-yl]carbonyl}benzyl)-4,5-dimethyl-3-oxo-2,3-dihydropyridazin-1-ium trifluoroacetate]
  CC50: < 5000 nM

## Cc1c(Cc2ccc(F)c(C(=O)N3CCN(C(c4ccccc4)C(F)F)C(=O)C3)c2)n[nH]c(=O)c1C (centres unmarked) [Example 46, 6-(3-{[4-(2,2-Difluoro-1-phenylethyl)-3-oxopiperazin-1-yl]carbonyl}-4-fluorobenzyl)-4,5-dimethyl-3-oxo-2,3-dihydropyridazin-1-ium trifluoroacetate]
  CC50: < 50 nM

## Cc1c(Cc2ccc(F)c(C(=O)N3CCN(C4CCCOC4)C(=O)C3)c2)n[nH]c(=O)c1C (centres unmarked) [Example 47, 6-(4-Fluoro-3-{[3-oxo-4-(tetrahydro-2H-pyran-3-yl)piperazin-1-yl]carbonyl}benzyl)-4,5-dimethyl-3-oxo-2,3-dihydropyridazin-1-ium trifluoroacetate]
  CC50: 50 to 500 nM

## Cc1c(Cc2ccc(F)c(C(=O)N3CCN(c4csc5ccccc45)C(=O)C3)c2)n[nH]c(=O)c1C [Example 62, 3-(3-{[4-(1-Benzothien-3-yl)-3-oxopiperazin-1-yl]carbonyl}-4-fluorobenzyl)-4,5-dimethyl-6-oxo-1,6-dihydropyridazin-1-ium trifluoroacetate]
  CC50: 50 to 500 nM

## Cc1c(Cc2ccc(F)c(C(=O)N3CCN(c4cncs4)C(=O)C3)c2)n[nH]c(=O)c1C [Example 63, 3-(4-Fluoro-3-{[3-oxo-4-(1,3-thiazol-5-yl)piperazin-1-yl]carbonyl}benzyl)-4,5-dimethyl-6-oxo-1,6-dihydropyridazin-1-ium trifluoroacetate]
  CC50: < 50 nM

## Cc1c(Cc2ccc(F)c(C(=O)N3CCN(c4cncnc4)C(=O)C3)c2)n[nH]c(=O)c1C [Example 64, 3-{4-Fluoro-3-[(3-oxo-4-pyrimidin-5-ylpiperazin-1-yl)carbonyl]benzyl}-4,5-dimethyl-6-oxo-1,6-dihydropyridazin-1-ium trifluoroacetate]
  CC50: < 5000 nM

## Cc1c(Cc2ccc(F)c(C(=O)N3CCN(c4cncc(C(F)(F)F)c4)C(=O)C3)c2)n[nH]c(=O)c1C [Example 65, 3-[4-Fluoro-3-({3-oxo-4-[5-(trifluoromethyl)pyridin-3-yl]piperazin-1-yl}carbonyl)benzyl]-4,5-dimethyl-6-oxo-1,6-dihydropyridazin-1-ium trifluoroacetate]
  CC50: 50 to 500 nM

## Cc1c(Cc2ccc(F)c(C(=O)N3CCN(C4CCCC(c5ccccc5)C4)C(=O)C3)c2)n[nH]c(=O)c1C (centres unmarked) [Example 66, 6-(4-Fluoro-3-{[3-oxo-4-(3-phenylcyclohexyl)piperazin-1-yl]carbonyl}benzyl)-4,5-dimethyl-3-oxo-2,3-dihydropyridazin-1-ium trifluoroacetate]
  CC50: 50 to 500 nM

## Cc1c(Cc2ccc(F)c(C(=O)N3CCN(C4CCC(c5ccccc5)CC4)C(=O)C3)c2)n[nH]c(=O)c1C (centres unmarked) [Example 68, 6-(4-Fluoro-3-{[3-oxo-4-(4-phenylcyclohexyl)piperazin-1-yl]carbonyl}benzyl)-4,5-dimethyl-3-oxo-2,3-dihydropyridazin-1-ium trifluoroacetate]
  CC50: < 50 nM

## Cc1c(Cc2ccc(F)c(C(=O)N3CCN(C4CCOC4)C(=O)C3)c2)n[nH]c(=O)c1C (centres unmarked) [Example 69, 6-(4-Fluoro-3-{[3-oxo-4-(tetrahydrofuran-3-yl)piperazin-1-yl]carbonyl}benzyl)-4,5-dimethyl-3-oxo-2,3-dihydropyridazin-1-ium trifluoroacetate]
  CC50: 50 to 500 nM

## Cc1c(Cc2ccc(F)c(C(=O)N3CCN(C4CCc5ccccc5C4)C(=O)C3)c2)n[nH]c(=O)c1C (centres unmarked) [Example 70, 6-(4-Fluoro-3-{[3-oxo-4-(1,2,3,4-tetrahydronaphthalen-2-yl)piperazin-1-yl]carbonyl}benzyl)-4,5-dimethyl-3-oxo-2,3-dihydropyridazin-1-ium trifluoroacetate]
  CC50: < 50 nM

## Cc1c(Cc2ccc(F)c(C(=O)N3CCN(C4Cc5ccccc5C4)C(=O)C3)c2)n[nH]c(=O)c1C [Example 71, 6-(3-{[4-(2,3-Dihydro-1H-inden-2-yl)-3-oxopiperazin-1-yl]carbonyl}-4-fluorobenzyl)-4,5-dimethyl-3-oxo-2,3-dihydropyridazin-1-ium trifluoroacetate]
  CC50: 50 to 500 nM

## Cc1c(Cc2cc(C(=O)N3CCN(C4CCCC4)C(=O)C3)c(F)cc2Br)n[nH]c(=O)c1C [Example 83, 6-{2-Bromo-5-[(4-cyclopentyl-3-oxopiperazin-1-yl)carbonyl]-4-fluorobenzyl}-4,5-dimethylpyridazin-3(2H)-one]
  CC50: < 50 nM
